Measured values as given in US7670785B2, “Polynucleotides and polypeptides associated with the development of rheumatoid arthritis” (Bristol-Myers Squibb Company, priority 2001, dated 2010).

Legend:
GBP-1 [1] = assay: GBP-1 expression in stimulated human microvascular endothelial cells, microarray; type: cell-based; conditions: three donors, TNFα 10, IL-1β 10, VEGF 30, bFGF 10 ng/ml, FIG. 93A
Protocol: (§1) Human microvascular endothelial cells from three different donors were obtained from Clonetics (Walkersville, Md.), and cultured in EGM-2 medium (Clonetics). Cells were cultured in 100 mm dishes coated with mouse type IV collagen and allowed to grow to approximately 80% confluency. The cells were then stimulated for 1, 6, or 24 hours with either medium, TNFα (10 ng/ml), or IL-1β (10 ng/ml). At each time point, mRNA was isolated, labeled and used to probe Affymetrix HG_U95Av2 and HG_U95B chips.
(§2) For VEGF and bFGF stimulations, microvascular endothelial cells from three independent donors were obtained, cultured in 100 mm dishes coated with mouse type IV collagen and allowed to grow to 30% confluency. At this time, the media was replaced with DMEM containing 2% fetal calf serum, and the cells were cultured an additional day. The cells were stimulated for 1, 6, or 24 hours with either medium, VEGF (30 ng/ml) or bFGF (10 ng/ml). At each time point, mRNA was isolated, labeled, and used to probe Affymetrix chips as described above.

GBP-5 [2] = assay: GBP-5 mRNA in resting and stimulated THP-1 monocytes, microarray; type: cell-based, human; conditions: IFN-γ 100 U/ml, TNFα 10 ng/ml, LPS 100 ng/ml, FIG. 92B
Protocol: (§3) For the microarray analyses, THP-1 cells (10^7/group) were cultured at 10^6/ml as above for 1, 6, 24, or 48 hours with either medium, TNFα (10 ng/ml), IFN-γ(100 U/ml), or LPS (100 ng/ml). At each time point, mRNA was isolated, labeled, and used to probe Affymetrix HG_U95Av2, HG_U95B, and HG_U95C chips.

GBP-1 [3] = assay: GBP-1 mRNA in resting and stimulated THP-1 monocytes, microarray; type: cell-based, human; conditions: IFN-γ 100 U/ml, TNFα 10 ng/ml, LPS 100 ng/ml, FIG. 92A
Protocol: as §3

GBP-5 [4] = assay: LPS-induced GBP-5 mRNA in THP-1 monocytes, real time PCR; type: cell-based, human; conditions: THP-1, LPS 100 ng/ml, 2 hour stimulation
Protocol: (§4) For real time PCR analyses, THP-1 cells (10^7/group) were cultured at 10^6/ml in RPMI containing 10% heat inactivated fetal calf serum, 2 mM L-glutamine with either medium, BMS-205820 (2 uM), or dexamethasone (100 nM) for 30 minutes at 37° C. in 5% CO2. LPS was added to each group (100 ng/ml), and the incubation continued for 0.5-8 hr. At the end of each time point, cells were pelleted, washed one time with 10 ml PBS, and stored at −80° C.
(§5) Total RNA was isolated from cells using the RNeasy® Kit from Qiagen (Valencia, Calif.), including the on-the-column DNase digestion procedure. RNA quality and quantity were evaluated using UV spectrometry. Total RNA was used for first-strand cDNA synthesis using the SuperScript™ First-Strand Synthesis System for RT-PCR (Invitrogen, Carlsbad, Calif.) following the manufacturer's instructions with 50 ng of random hexamers.
(§6) Reactions were performed in a total volume of 40 μl. The master mix contained SYBR Green I Dye, 50 mM Tris-HCl pH8.3, 75 mM KCl, DMSO, Rox reference dye, 5 mM MgCl2, 2 mM dNTP, Platinum Taq High Fidelity (1 U/reaction), and 0.5 μM of each primer. Eight microliters of diluted cDNA was used in each PCR reaction. […]
(§7) A relative value for the initial target concentration in each reaction was determined using the TaqMan 5700 software. […]

GBP-1 [5] = assay: LPS-induced GBP-1 mRNA in THP-1 monocytes, real time PCR; type: cell-based, human; conditions: THP-1, LPS 100 ng/ml, 2 hour stimulation
Protocol: as §4, §5, §6, §7

GBP-1 [6] = assay: GBP-1 mRNA in stimulated synovial fibroblasts from rheumatoid arthritis patients, microarray; type: cell-based, human; conditions: RA synovial fibroblasts; TNFα, IL-1α, IL-17 10 ng/ml, IL-17b-Ig 5 ng/ml; FIG. 94A
Protocol: Synovial fibroblasts were obtained from Cell Applications, Inc. (San Diego, Calif.), and cultured for 1, 6, or 24 hours with either medium, TNFα (10 ng/ml), IL-1α (10 ng/ml, Peprotech), IL-17 (10 ng/ml, R&D Systems, Minneapolis, Minn.), or IL-17b-Ig fusion protein (5 ng/ml). The IL-17b protein was produced by fusing the full length IL-17b sequence (Shi et al., J. Biol. Chem. 275:19167-19176 (2000)) to the human IgG1 Fc region. At each time point, mRNA was isolated, labeled, and used to probe Affymetrix HG_U95Av2, HG_U95B, HG_U95C, HG_U95D, and HG_U95E chips.

mouse GBP-1 = assay: GBP-1 mRNA in stimulated mouse fibroblasts, real time PCR; type: cell-based; conditions: 2 or 8 hours, TNFα 10 ng/ml or PMA 10 ng/ml, FIG. 90A
Protocol: (§8) Wild type 3T3 fibroblasts and immortalized fibroblast lines derived from p65 and IkBα germline knockouts were cultured in DMEM with 10% calf serum, glutamax and penicillin/streptomycin. Primary embryonic fibroblasts derived from germline knockouts of relB and p50 were cultured in DMEM with 10% fetal calf serum, glutamax and penicillin/streptomycin. The fibroblasts were plated at 5×10^5/well of a 6 well plate and cultured overnight at 37° C. in 5% CO2. Cells were stimulated for 2 or 8 hours with either medium, human TNFα (10 ng/ml) or PMA (10 ng/ml). At each time point, cells were harvested using trypsin/EDTA, washed one time with PBS, and stored at −80° C.
as §5
(§9) Reactions were performed in a total volume of 40 μl. […]
as §7

GBP-5 [7] = assay: GBP-5 expression in stimulated human microvascular endothelial cells, microarray; type: cell-based; conditions: for donors whose cells upregulated GBP-5 mRNA: human microvascular endothelial cells from three donors; for induction of GBP-5: human microvascular endothelial cells, three donors, TNFα 10, IL-1β 10 ng/ml, FIG. 93B
Protocol: as §1, §2

GBP-5 [8] = assay: GBP-5 mRNA in stimulated mouse fibroblasts, real time PCR; type: cell-based; conditions: 2 or 8 hours, TNFα 10 ng/ml or PMA 10 ng/ml, FIG. 90B
Protocol: as §8, §5, §9, §7

IL-1 = conditions: RA patients; cited from earlier work
TNF-α = biological target: T1, TNF-α (Homo sapiens, UniProt P01375); conditions: cited from earlier work
T1 construct: host or cells: RA patients (in vivo)
T1 sequence (P01375 77-233 limits assumed): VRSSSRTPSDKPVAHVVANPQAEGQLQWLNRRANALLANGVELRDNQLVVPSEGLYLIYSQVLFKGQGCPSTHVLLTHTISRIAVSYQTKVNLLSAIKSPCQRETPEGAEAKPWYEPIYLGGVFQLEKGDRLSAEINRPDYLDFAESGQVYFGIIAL

Fc gamma RI = conditions: RA patients, monocytes; cited from earlier work
IL-15 = biological target: T2, IL-15 (Mus musculus, UniProt P48346); conditions: administration to mice; cited from earlier work
T2 construct: host or cells: mice (collagen-induced arthritis model)
T2 sequence (P48346 49-162): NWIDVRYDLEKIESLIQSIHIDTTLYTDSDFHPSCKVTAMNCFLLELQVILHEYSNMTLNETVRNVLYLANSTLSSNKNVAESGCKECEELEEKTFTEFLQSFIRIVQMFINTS

## VEGF
GBP-1 [1]
  GBP-1 expression: No induction

## lipopolysaccharide [LPS, reference compound]
GBP-5 [2]
  steady state level of GBP-5 mRNA: Much lower levels of expression were induced
GBP-1 [3]
  steady state level of GBP-1 mRNA: Much lower levels of expression were induced
GBP-5 [4]
  steady-state mRNA level of GBP-5: significantly increased
GBP-1 [5]
  steady-state mRNA level of GBP-1: significantly increased

## TNFα
GBP-1 [6]
  GBP-1 mRNA induction: induced at 1 and 6 hours
Mouse GBP-1
  steady-state level of GBP-1 mRNA: induced increased steady-state levels
GBP-5 [2]
  steady state level of GBP-5 mRNA: Much lower levels of expression were induced
GBP-5 [7]
  donors whose cells upregulated GBP-5 mRNA: two out of three
  induction of GBP-5: variable
GBP-1 [1]
  GBP-1 expression: strongly induced
GBP-1 [3]
  steady state level of GBP-1 mRNA: Much lower levels of expression were induced
GBP-5 [8]
  steady-state level of GBP-5 mRNA: induced increased steady-state levels

## IL-1Ra: natural inhibitor of IL-1, recombinant human IL-1 receptor antagonist
IL-1
  clinical symptoms and rate of progressive joint damage: significantly reduced

## Etanercept
TNF-α; RA patients
  number of swollen joints: significant decrease
  numbers of T cells and plasma cells in the synovium: significant decrease
TNF-α; treated patients
  expression of VCAM-1 and IL-1 in the synovium: decrease

## CCCCCCCCCCCCCC(=O)O[C@@H]1[C@@H](C)[C@@]2(O)[C@@H](C=C(CO)C[C@]3(O)C(=O)C(C)=C[C@@H]23)[C@@H]2C(C)(C)[C@]12OC(C)=O [PMA, reference compound]
GBP-5 [8]
  steady-state level of GBP-5 mRNA: not

## IL-1β: cytokine used as stimulus of endothelial cells
GBP-5 [7]
  donors whose cells upregulated GBP-5 mRNA: Only one donor
  induction of GBP-5: variable
GBP-1 [1]
  GBP-1 expression: strongly induced

## C[C@]12C=CC(=O)C=C1CC[C@@H]1[C@@H]2[C@@H](O)C[C@@]2(C)[C@H]1CC[C@]2(O)C(=O)CO [prednisolone]
Fc gamma RI
  Fc gamma RI expression: induced down-regulation

## interferon-γ: cytokine used as stimulus of THP-1 monocytes
GBP-5 [2]
  steady state level of GBP-5 mRNA: strongly induced
GBP-1 [3]
  steady state level of GBP-1 mRNA: strongly induced

## basic FGF: growth factor used as stimulus of endothelial cells
GBP-1 [1]
  GBP-1 expression: No induction

## IL-17: cytokine used as stimulus of synovial fibroblasts (R&D Systems)
GBP-1 [6]
  GBP-1 mRNA induction: not

B1: soluble IL-15 receptor alpha chain: soluble IL-15 receptor alpha chain administered to mice (protein, UniProt Q60819 33-205, looked up)
extracellular domain: GTTCPPPVSIEHADIRVKNYSVNSRERYVCNSGFKRKAGTSTLIECVINKNTNVAHWTTPSLKCIRDPSLAHYSPVPTVVTPKVTSQPESPSPSAKEPEAFSPKSDTAMTTETAIMPGSRLTPSQTTSAGTTGTGSHKSSRAPSLAATMTLEPTASTSLRITEISPHSSKMTK
modifications: extracellular domain
notes: soluble IL-15 receptor alpha chain administered to mice
IL-15
  collagen-induced arthritis: prevented

B2: IL-1a: cytokine used as stimulus of synovial fibroblasts (Peprotech) (protein, UniProt P01583 113-271, looked up)
Interleukin-1 alpha: SAPFSFLSNVKYNFMRIIKYEFILNDALNQSIIRANDQYLTAAALHNLDEAVKFDMGAYKSSKDDAKITVILRISKTQLYVTAQDEDQPVLLKEMPEIPKTITGSETNLLFFWETHGTKNYFTSVAHPNLFIATKQDYWVCLAGGPPSITDFQILENQA
GBP-1 [6]
  GBP-1 mRNA induction: induced at 1 and 6 hours

B3: IL-17b: full length IL-17b sequence fused to the human IgG1 Fc region (protein)
chain: QPRSPKSKRKGQGRPGPLAPGPHQVPLDLVSRMKPYARMEEYERNIEEMVAQLRNSSELAQRKCEVNLQLWMSNKRSLSPWGYSINHDPSRIPVDLPEARCLCLGCVNPFTMQEDRSMVSVPVFSQVPVRRRLCPPPPRTGPCRQRAVMETIAVGCTCIF
GBP-1 [6]
  GBP-1 mRNA induction: not
